Measurements: patent US20240150333A1, “TAF1 INHIBITORS” (H. LEE MOFFITT CANCER CENTER AND RESEARCH INSTITUTE, INC., priority 2020, published 2024)
Entries after “also recorded” stand apart in the source; their conditions may differ.

Experiments:
[1] = target: T1, TAF1-T (TAF1 tandem bromodomain, BD1 and BD2) (Homo sapiens, UniProt P21675); experiment: Differential scanning fluorimetry (DSF) thermal shift; type: binding
T1 construct: tandem bromodomain (residues 1373-1635); His6 (TEV-cleavable) (cleaved yes); host or cells: E. coli BL21 (DE3)
T1 sequence (P21675 1373-1635 isoform P21675-1): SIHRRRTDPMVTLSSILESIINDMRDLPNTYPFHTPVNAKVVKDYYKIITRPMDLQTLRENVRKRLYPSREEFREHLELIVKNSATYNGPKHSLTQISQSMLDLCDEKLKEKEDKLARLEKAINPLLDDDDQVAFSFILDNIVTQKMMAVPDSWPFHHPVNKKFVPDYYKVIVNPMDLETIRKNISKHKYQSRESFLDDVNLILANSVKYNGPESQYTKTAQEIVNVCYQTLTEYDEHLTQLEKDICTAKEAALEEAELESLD

[2] = target: T2, TAF1-T (TAF1 tandem bromodomain) (Homo sapiens, UniProt P21675); experiment: Isothermal titration calorimetry (ITC); type: binding; settings: Table 3; 298.15 K
T2 construct: tandem bromodomain (residues 1373-1635); His6 (TEV-cleavable) (cleaved yes); host or cells: E. coli BL21 (DE3)
T2 sequence (P21675 1373-1635 isoform P21675-1): T1 sequence (P21675 1373-1635 isoform P21675-1)

TAF1-2 (TAF1 BD2) = target: T3, TAF1-2 (TAF1 BD2) (Homo sapiens, UniProt P21675); experiment: Isothermal titration calorimetry (ITC); type: binding; settings: Table 3; 288.15 K
T3 construct: BD2 (residues 1501-1635); His6 (TEV-cleavable) (cleaved yes); host or cells: E. coli BL21 (DE3)
T3 sequence (P21675 1501-1635 isoform P21675-1): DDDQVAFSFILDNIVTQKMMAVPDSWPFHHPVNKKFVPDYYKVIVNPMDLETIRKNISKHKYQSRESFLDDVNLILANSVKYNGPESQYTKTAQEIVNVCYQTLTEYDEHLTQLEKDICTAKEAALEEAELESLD

panel of 32 bromodomains = experiment: Profiling across a panel of 32 bromodomains (DiscoveRx), overall statement; type: binding, human; settings: 20 μM concentration
A549 lung cancer cells = experiment: p53 pathway markers by western blot in A549 cells; type: cell-based, human

`C[C@@H]1COCCN1c1cc(C2([S@](C)(=N)=O)CC2)nc(-c2cc[nH]c3nccc2-3)n1` [AZD6738] was tested, and the “DSF (ΔTm, ° C.) TAF1-T” value ([1]; Table 1 (Example 1)) was 5.8 ± 0.5 °C, the ΔTm at 100 µM ([1]; Table 2 (Example 2), 100 μM compound, standard deviation from two experiments) was 3.1 °C and the “DSF (ΔTm, ° C.) TAF1-T” value ([1]; Table 2 (Example 2), 100 μM compound, standard deviation from two experiments, 100 µM) was 3.2 ± 0.1 °C. For the same molecule, the “ITC N (stoichiometry), TAF1-T” value [2] was 1.11, the “ITC TΔS, TAF1-T” value [2] was 2.26 kcal/mol and the “ITC ΔH, TAF1-T” value [2] was -5.82 kcal/mol. For the same molecule, the “ITC N (stoichiometry), TAF1-2” value (TAF1-2 (TAF1 BD2)) was 0.99, the “ITC TΔS, TAF1-2” value (TAF1-2 (TAF1 BD2)) was 3.26 kcal/mol and the “ITC ΔH, TAF1-2” value (TAF1-2 (TAF1 BD2)) was -4.36 kcal/mol. The “Interaction with BRD2-2, BRD3-2, BRD4-2, CECR2 and WDR9-2” value (panel of 32 bromodomains) was “interacted weakly; also recorded: weakly interacted”, the “p53 and p21 levels” value (A549 lung cancer cells; A549, 10 μM, 24 h, western blot) was “modest increase” and the MDMX levels (A549 lung cancer cells; A549, western blot) was “modest effect”.
